The values that follow come from ChEMBL document CHEMBL1201862, “PubChem BioAssay data set” (2004).

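Briefly, cells in 96-well plates were exposed to five compound concentrations for 48 h, and endpoints were estimated by linear interpolation. The concentration for 50% growth inhibition is given as GI50.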 Activity calls are given as the source filed them. Cut-off read from the data, not from the text of the source: active = GI50 up to about 1.1 µM and inactive = higher. A value given as a limit tells only on which side of the number the result lay.

Among the test systems are CAKI-1; COLO 205; DU-145; HCT-116; HCT-15; HT-29; IGROV-1; K562; KM12; MCF7; MDA-MB-231; MOLT-4; NCI-H226; OVCAR-4; SF-268; SR; SW-620; UACC-257; A549.
Common to all, as to experiment: DTP human tumour cell line panel, 48 h

Broadly, the GI50 is the concentration giving 50% growth inhibition.

On to `CC(C)[C@@H](C)[C@@]1(C)C[C@@H]1[C@@H](C)[C@H]1CC[C@@H]([C@@H]2CC=C3C[C@@H](O)CC[C@]3(C)C2=O)[C@]1(C)CCO`, for which the GI50 is 12.8 µM (inactive) with CAKI-1; 11.9 µM (inactive) in the test on COLO 205; 15.3 µM (inactive) with DU-145; 10.1 µM (inactive) in the test on HCT-116; 5.27 µM in the test with HCT-15; 2.58 µM (inactive) in the test with HT-29. In addition, the GI50 with IGROV-1 is 15.6 µM (inactive); in the test on K562, 3.49 µM (inactive); with KM12, 2.82 µM (inactive); in the test on MCF7, 10.9 µM (inactive); in the test on MDA-MB-231, 14.8 µM (inactive); in the test with MOLT-4, 4.17 µM (inactive). The GI50 is 12.5 µM (inactive) in the test with NCI-H226; 12.1 µM (inactive) in the test with OVCAR-4; 15.5 µM (inactive) in the test with SF-268; 2.69 µM (inactive) in the test with SR; 7.55 µM (inactive) with SW-620; 14.3 µM (inactive) in the test with UACC-257.

Consider `COc1ccc(C2=NN=C3C(c4ccccc4)=Nc4ccccc4N3C2)cc1`, for which the GI50 in the test with A549 is 35.7 µM (inactive); with COLO 205 it was 15.3 µM (inactive); in the test on DU-145, 8.18 µM (inactive); with HCT-116, 14.6 µM (inactive); with HCT-15, 16.9 µM; in the test with HT-29, 20.1 µM (inactive). For the same molecule, the GI50 with IGROV-1 was 29.4 µM (inactive); in the test on K562, 30.8 µM (inactive); in the test on KM12 it was 21.4 µM (inactive); in the test on MCF7, 21.7 µM (inactive); with MDA-MB-231, 27.5 µM (inactive); with MOLT-4, 7.05 µM (inactive). The GI50 in the test with NCI-H226 is 41.6 µM (inactive); in the test on OVCAR-4 it was 6.49 µM (inactive); in the test with SF-268, 13.6 µM (inactive); in the test on SR, 3.04 µM (inactive); in the test with SW-620 it was 14.9 µM (inactive); in the test with UACC-257 it was 27.5 µM (inactive).

Regarding `O=c1[nH]c(Nc2nc3ccccc3[nH]2)nc(O)c1-c1ccccc1`, the GI50 in the test on A549 was > 100 µM (inactive); in the test on CAKI-1, > 100 µM (inactive); with COLO 205 it was > 100 µM (inactive); in the test with DU-145, > 100 µM (inactive); with HCT-116, > 100 µM (inactive); in the test with HCT-15 it was > 100 µM. The GI50 with HT-29, in the test with IGROV-1, in the test on K562, in the test with MCF7, with MDA-MB-231 and in the test on NCI-H226 was > 100 µM (inactive) in each case. Further, the GI50 with OVCAR-4, in the test with SF-268, in the test with SR, in the test with SW-620 and with UACC-257 was > 100 µM (inactive) each time.

For `CCCCCCNc1n[nH]c(=O)c2c1nnn2Cc1ccccc1`, the GI50 with A549 was > 100 µM (inactive); with CAKI-1, > 100 µM (inactive); with COLO 205, > 100 µM (inactive); with DU-145, > 100 µM (inactive); in the test on HCT-116 it was > 100 µM (inactive); in the test with HCT-15, > 100 µM. Besides, the GI50 in the test with HT-29, with K562, with KM12, in the test with MCF7, in the test on MDA-MB-231 and in the test with MOLT-4 was > 100 µM (inactive) in each case. The GI50 in the test on OVCAR-4, in the test with SR and in the test on UACC-257 was > 100 µM (inactive) throughout.
